Measured values published in the NIST ThermoML archive (doi:10.1016/j.tca.2011.08.013).
± gives the expanded uncertainty stated by the source.

Experiments:
[1] = Liquid; for viscosity: Capillary tube (Ostwald / Ubbelohde) method; for speed of sound: Linear variable-path acoustic interferometer; for mass density: Pycnometric method
[2] = xn = mol fraction of the nth substance listed; conditions: 101 kPa, Liquid; for viscosity: Capillary tube (Ostwald / Ubbelohde) method; for speed of sound: Linear variable-path acoustic interferometer; for mass density: Pycnometric method
[3] = mn = molality of the nth substance listed, in mol/kg; conditions: 101 kPa, Liquid; for viscosity: Capillary tube (Ostwald / Ubbelohde) method; for speed of sound: Linear variable-path acoustic interferometer; for mass density: Pycnometric method

C[S+](C)[O-] [dimethyl sulfoxide]
[1], 101.33 kPa
Conditions | mass density [kg/m3] | speed of sound [m/s] | viscosity [mPa·s]
308.15 K | 1085.9 ± 0.6 | 1457.9 ± 1.7 | 1.655 ± 0.011
318.15 K | 1075.6 ± 0.7 | 1423.4 ± 1.7 | 1.392 ± 0.009

C[S+](C)[O-] [dimethyl sulfoxide] + O
[2]
Conditions | mass density [kg/m3] | speed of sound [m/s] | viscosity [mPa·s]
303.15 K, x1 = 0.0121 | 1002 ± 1.3 | 1534.6 ± 2.8 | 0.9 ± 0.012
303.15 K, x1 = 0.0255 | 1008 ± 1.3 | 1556.6 ± 2.8 | 0.979 ± 0.013
303.15 K, x1 = 0.0424 | 1015.3 ± 1.3 | 1580 ± 2.8 | 1.089 ± 0.014
303.15 K, x1 = 0.0583 | 1021.4 ± 1.3 | 1602.7 ± 2.8 | 1.224 ± 0.015
308.15 K, x1 = 0.0121 | 1000.3 ± 1.3 | 1541.3 ± 2.8 | 0.805 ± 0.011
308.15 K, x1 = 0.0255 | 1006.4 ± 1.3 | 1561.7 ± 2.8 | 0.888 ± 0.012
308.15 K, x1 = 0.0424 | 1013.6 ± 1.3 | 1583.1 ± 2.8 | 0.988 ± 0.013
308.15 K, x1 = 0.0583 | 1019.3 ± 1.3 | 1603.5 ± 2.8 | 1.102 ± 0.014
313.15 K, x1 = 0.0121 | 998.5 ± 1.3 | 1546.2 ± 2.8 | 0.729 ± 0.01
313.15 K, x1 = 0.0255 | 1004.4 ± 1.3 | 1566 ± 2.8 | 0.806 ± 0.011
313.15 K, x1 = 0.0424 | 1011.4 ± 1.3 | 1586.1 ± 2.8 | 0.887 ± 0.012
313.15 K, x1 = 0.0583 | 1017.6 ± 1.3 | 1604.9 ± 2.8 | 1.002 ± 0.013
318.15 K, x1 = 0.0121 | 996.2 ± 1.3 | 1552.4 ± 2.8 | 0.667 ± 0.009
318.15 K, x1 = 0.0255 | 1002.3 ± 1.3 | 1569.7 ± 2.8 | 0.735 ± 0.01
318.15 K, x1 = 0.0424 | 1009.3 ± 1.3 | 1587.2 ± 2.8 | 0.808 ± 0.011
318.15 K, x1 = 0.0583 | 1015.3 ± 1.3 | 1603.3 ± 2.8 | 0.903 ± 0.012

[F-].[K+] [potassium fluoride] + O
[3]
Conditions | mass density [kg/m3] | speed of sound [m/s] | viscosity [mPa·s]
303.15 K, m1 = 0.05 | 998.2 ± 1.3 | 1515.5 ± 2.7 | 0.805 ± 0.011
303.15 K, m1 = 0.1 | 1000.4 ± 1.3 | 1518.9 ± 2.8 | 0.811 ± 0.011
303.15 K, m1 = 0.15 | 1002.6 ± 1.3 | 1522.1 ± 2.8 | 0.819 ± 0.011
303.15 K, m1 = 0.2 | 1004.7 ± 1.3 | 1525.8 ± 2.8 | 0.827 ± 0.011
308.15 K, m1 = 0.05 | 996.6 ± 1.3 | 1524 ± 2.8 | 0.726 ± 0.01
308.15 K, m1 = 0.1 | 998.8 ± 1.3 | 1526.9 ± 2.8 | 0.734 ± 0.01
308.15 K, m1 = 0.15 | 1001 ± 1.3 | 1530.5 ± 2.8 | 0.741 ± 0.01
308.15 K, m1 = 0.2 | 1003.2 ± 1.3 | 1534 ± 2.8 | 0.745 ± 0.01
313.15 K, m1 = 0.05 | 994.7 ± 1.3 | 1531.4 ± 2.8 | 0.66 ± 0.009
313.15 K, m1 = 0.1 | 997 ± 1.3 | 1536.1 ± 2.8 | 0.668 ± 0.009
313.15 K, m1 = 0.15 | 999.1 ± 1.3 | 1538.6 ± 2.8 | 0.672 ± 0.009
313.15 K, m1 = 0.2 | 1001.2 ± 1.3 | 1542.4 ± 2.8 | 0.679 ± 0.009
318.15 K, m1 = 0.05 | 992.7 ± 1.3 | 1538.6 ± 2.8 | 0.604 ± 0.009
318.15 K, m1 = 0.1 | 994.8 ± 1.3 | 1543.4 ± 2.8 | 0.612 ± 0.009
318.15 K, m1 = 0.15 | 997 ± 1.3 | 1546.2 ± 2.8 | 0.615 ± 0.009
318.15 K, m1 = 0.2 | 999.2 ± 1.3 | 1549.4 ± 2.8 | 0.622 ± 0.009

O [water]
[1], 101 kPa
Conditions | speed of sound [m/s] | viscosity [mPa·s]
303.15 K | 1512 ± 2.7 | 0.797 ± 0.011
308.15 K | – | 0.719 ± 0.01
313.15 K | 1528 ± 2.8 | 0.653 ± 0.009
318.15 K | 1535.2 ± 2.8 | 0.597 ± 0.008
